Read-outs that look alike come from different tables or passages of the source.

The subject of data set [1] is Dengue 2, New Guinea strain (NGC). As to the kind of experiment: DENV-2 moDC EC50 (qPCR of viral RNA in infected moDCs). The class given is cell-based, New Guinea strain (NGC); human moDCs. Particulars: human moDCs infected with Dengue 2 NGC, MOI=0.1, 48 hours. The method, boiled down:
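moDCs differentiated 7 days from CD14+ monocytes with GM-CSF/IL-4, infected with Vero-derived DENV-2 NGC at MOI 0.1 for 2 h at 37 °C, then plated in triplicate with graded compound doses (0.25% DMSO). At 48 h viral RNA quantified by duplex TaqMan qPCR against GAPDH; EC50 normalized to positive and no-compound controls.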
In general terms: Quantitative PCR measures a nucleic acid by following its amplification.

In data set [2] the test system is Dengue serotype 2 New Guinea C (NGC) strain. As to the kind of experiment: DENV-2 Huh-7 EC50 (qPCR of viral RNA in infected Huh7 cells). The class given is cell-based. Particulars: MOI=0.1, 48 hours. The method, boiled down:
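Huh7 cells were infected 2 h at 37 °C with DENV-2 NGC at MOI 0.1, then plated with graded compound doses (0.25% DMSO) in triplicate for 48 h. Viral RNA was quantified by duplex TaqMan qPCR against GAPDH. EC50 was normalized to positive and no-compound controls.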

The nature of data set [3]: HEp-2 CC50 (cytotoxicity in uninfected HEp-2 cells). Particulars: human, CellTiter Glo. The class given is cell-based. On the procedure: (§1) Instead, an uninfected cell mixture at the same density is added at 20 uL/well to plates containing prediluted compounds, also at 100 nL/sample. Assay plates are then incubated for 4 days followed by a cell viability test using the same CellTiter Glo reagent addition and measurement of luminescent readouts. Untreated cell and cells treated at 2 μM puromycin (Sigma, St. Louis, MO) serve as 100% and 0% cell viability control, respectively.
(In general: In ATP-based viability assays light output follows the ATP content of the culture.)

The nature of data set [4]: moDC CC50 (CellTiter Glo viability). The data set is classed as cell-based, Human. Particulars: human, uninfected moDCs.
In the next data set the test system is RSV A2. As to the kind of experiment: RSV NHBE EC50 (RSV A2 antiviral assay in NHBE cells). The class given is cell-based, RSV A2; normal human bronchial epithelial (NHBE) cells. Particulars: human respiratory syncytial virus, 96 h; NHBE cells infected with RSV A2, 4 days, Cell-Titer Glo. On the procedure:
Example 88. RSV NHBE EC50
Normal human bronchial epithelial (NHBE) cells were purchased from Lonza (Walkersville, MD, Cat #CC-2540) and cultured in Bronchial Epithelial Growth Media (BEGM) (Lonza, Walkersville, MID, Cat 9 CC-3170). The cells were passaged 1-2 times per week to maintain<80% confluency. The NHBE cells were discarded after 6 passages in culture.
To conduct the RSV A2 antiviral assay, NHBE cells were plated in 96-well plates at a density of 7,500 cells per well in BEGM and allowed to attach overnight at 37° C. Following attachment, 100 μL of cell culture media was removed and 3-fold serially diluted compound was added using a Hewlett-Packard D300 Digital Dispenser. The final concentration of DMSO was normalized to 0.05%. Following compound addition, the NHBE cells were infected by the addition of 100 μL of RSV A2 at a titer of […] tissue culture infectious doses/mL in BEGM and then incubated at 37° C. for 4 days. The NHBE cells were then allowed to equilibrate to 25° C. and cell viability was determined by removing 100 μL of culture medium and adding 100 μL of Cell-Titer Glo viability reagent. The mixtures were incubated for 10 minutes at 25° C., and the luminescence signal was quantified on an Envision luminescence plate reader.

Another data set concerns RSV strain A2. In words: RSV HEp-2 EC50 (infectious cytopathic cell protection assay). The data set is classed as cell-based, RSV strain A2; HEp-2 cells. Particulars: read-out: RSV Hep-2 EC50. The method, boiled down: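 HEp-2 cells (50,000/mL) infected with titered RSV stock, added onto compound in 3-fold serial dilutions; 4 days at 37 °C. Cell viability read by CellTiter-Glo luminescence; percent inhibition of virus-induced cytopathic effect derived from remaining viability against 0% and 100% inhibition controls.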
On the technique in general: Cytopathic effects are the visible damage that an infection or toxin causes in cultured cells.

Data set [5] is described as follows: Huh-7 CC50 (CellTiter Glo viability). The data set is classed as cell-based, Human. Particulars: human, Huh7 hepatocarcinoma cells. The method, boiled down: (§2)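 Huh7 cells in 10% FCS DMEM plated at 1-2×10^4 per well in triplicate with graded compound doses, 0.25% DMSO throughout. Viability after 48 hours by CellTiter Glo luminescence, normalized to no-compound and no-cell controls; CC50 from curve fitting.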

Another data set relates to uninfected HEp-2 cells. As to the kind of experiment: HEp-2 CC50 (cytotoxicity in uninfected HEp-2 cells). The class given is cell-based. Particulars: 4 days, CellTiter Glo. As for the experimental part: as §1
Data set [6] deals with Human monocyte-derived dendritic cells (moDCs). In words: moDC CC50 (CellTiter Glo viability). The data set is classed as cell-based. Particulars: uninfected moDCs, 48 hours.
For data set [7], the system named is Human hepatocarcinoma 7 (Huh7) cells. As to the kind of experiment: Huh-7 CC50 (CellTiter Glo viability). The data set is classed as cell-based. Particulars: 48 hours. The method in brief:
as §2

A further data set deals with T1, DENV2 NS5 (Dengue virus type 2, UniProt P14340).
T1 construct: His tag (pET28b, thrombin-cleavable) (N); made in house; host or cells: E. coli BL21 (DE3)
As to the kind of experiment: DENV Pol IC50 (DENV2-NS5 polymerase assay). The data set is classed as biochemical. Particulars: 100 nM DENV2 NS5, sshRNA template, 90 minutes at 30° C.

Where [8] appears, read: Dengue virus, DENV2, Huh-7, Huh7 cells infected with Dengue serotype 2 NGC.
Setting [9] is: human respiratory syncytial virus, HEp-2, 96 h.
The mark [10] stands for this setting: Huh7 cells infected with Dengue serotype 2 NGC.
Where [11] appears, read: HEp-2 cells infected with RSV A2, 4 days, Cell TiterGlo.

Experimental for DENV2 NS5: A 244 nucleotide secondary structureless heteropolymeric RNA (sshRNA) with sequence 5′-(UCAG)20(UCCAAG)14(UCAG)20-3′ (SEQ ID NO: 1) is used as the template with 5′-CUG-3′ primer in the DENV2-NS5 polymerase assay. Six two-fold dilutions of compounds starting from 200 nM and no inhibitor control are plated in 96-well plates. 100 nM DENV2 NS5 is preincubated for 5 minutes at room temperature in a reaction mixture containing 40 mM Tris-HCl (pH 7.5), 10 mM NaCl, 3 mM DTT, 0.2 unit/μL RNasin Plus RNase Inhibitor, 200 ng/μL sshRNA, 20 μM CUG and 2 mM MgCl2. Enzyme mix is added to compound dilutions and reactions initiated by the addition of a mixture containing 20 μM of three natural NTP plus 2 μM of analog:base matched competing natural NTP containing 1:100 α-33P-NTP. After 90 minutes at 30° C., 5 μL of the reaction mixtures are spotted on DE81 anion exchange paper. Filter papers are washed three times with Na2HPO4 (125 mM, pH 9) for 5 minutes, rinsed with water and ethanol, then air-dried and exposed to phosphorimager. Synthesized RNA is quantified using Typhoon Trio Imager and Image Quant TL Software and reaction rates are calculated by linear regression using GraphPad Prism 5.0. IC50 values are calculated in Prism by non-linear regression analysis using the dose-response (variable slope) equation (four-parameter logistic equation): Y=Bottom+(Top-Bottom)/(1+10^((Log IC50−X)*HillSlope)).

Consider `CCC(CC)COC(=O)[C@H](C)N[P@](=O)(OC[C@@]1(CF)O[C@@H](c2ccc3c(N)ncnn23)[C@H](O)[C@@H]1O)Oc1ccccc1` [Example 1, 2-ethylbutyl ((S)-(((2R,3S,4R,5S)-5-(4-aminopyrrolo[2,1-f][1,2,4]triazin-7-yl)-2-(fluoromethyl)-3,4-dihydroxytetrahydrofuran-2-yl)methoxy)(phenoxy)phosphoryl)-L-alaninate], for which the EC50 (in general, the concentration needed to bring the measured effect to its halfway point) in [1] (Dengue virus) came out at 117 nM; in data set [2] (setting [8]) it was 151 nM; with RSV A2, 595 nM; with RSV strain A2 (setting [9]), 119 nM. Moreover, the CC50 – broadly, the concentration that lowers cell viability or growth by half – at 4 days in data set [3] was greater than 50000 nM. In addition, the CC50 at 48 h in [4] was greater than 5890 nM; in data set [5], 18000 nM.

With `CCC(=O)O[C@H]1[C@H](c2ccc3c(N)ncnn23)O[C@](CF)(COP(=O)(N[C@@H](C)C(=O)OC2CCCCC2)Oc2ccccc2)[C@H]1OC(=O)CC` (stereo partly drawn) [Example 16, (2R,3S,4S,5S)-5-(4-aminopyrrolo[2,1-f][1,2,4]triazin-7-yl)-2-((((((S)-1-(cyclohexyloxy)-1-oxopropan-2-yl)amino)(Phenoxy)phosphoryl)oxy)methyl)-2-(fluoromethyl)tetrahydrofuran-3,4-diyl dipropionate], the EC50 in data set [1] came out at 214 nM; in data set [2] (setting [10]), 736 nM; with RSV strain A2 (setting [11]) it was 1100 nM. For the same compound, the values for the CC50 (in the data set on uninfected HEp-2 cells; in [6]; in data set [7]) were 33000 nM, 3800 nM and 13400 nM, respectively.

On to `C[C@H](NP(=O)(OC[C@@]1(CF)O[C@@H](c2ccc3c(N)ncnn23)[C@H](O)[C@@H]1O)Oc1ccccc1)C(=O)OCC(C)(C)C(F)(F)F` (single isomer, unassigned) [Example 54], for which the EC50 was found to be 241 nM in [1], 409 nM in data set [2] (setting [10]) and 180 nM in the data set on RSV strain A2 (setting [11]). Further, the CC50 with uninfected HEp-2 cells is greater than 100000 nM; in data set [6], 3260 nM; in data set [7] it was greater than 25000 nM.

Turning to `CCOC(=O)[C@H](C)NP(=O)(OC[C@@]1(CF)O[C@@H](c2ccc3c(N)ncnn23)[C@H](OC(=O)C(C)C)[C@@H]1OC(=O)C(C)C)Oc1ccccc1` (stereo partly drawn) [Example 24, (2R,3S,4S,5S)-5-(4-aminopyrrolo[2,1-f][1,2,4]triazin-7-yl)-2-((((((S)-1-ethoxy-1-oxopropan-2-yl)amino)(phenoxy)phosphoryl)oxy)methyl)-2-(fluoromethyl) tetrahydrofuran-3,4-diyl bis(2-methylpropanoate)], the results for the EC50 (in [1]; in [2] (setting [10]); in the data set on RSV strain A2 (setting [11])) were 257 nM, 1560 nM and 1830 nM, respectively. Further, the CC50 was determined as 16600 nM with uninfected HEp-2 cells, 18600 nM in [6] and 16000 nM in [7].

Consider `Nc1ncnn2c([C@@H]3O[C@@](CO)(CF)[C@@H](O)[C@H]3O)ccc12` [Intermediate 5, (2R,3S,4R,5S)-5-(4-aminopyrrolo[2,1-f][1,2,4]triazin-7-yl)-2-(fluoromethyl)-2-(hydroxymethyl)tetrahydrofuran-3,4-diol], for which the CC50 at 4 days in data set [3] is greater than 50000 nM. For the same compound, the EC50 was greater than 4830 nM in the data set on RSV A2 and greater than 50000 nM in the data set on RSV strain A2 (setting [9]).

As for `CCOC(=O)[C@H](C)NP(=O)(OC[C@@]1(CF)O[C@@H](c2ccc3c(N)ncnn23)[C@H](OC(C)=O)[C@@H]1OC(C)=O)Oc1ccccc1` (stereo partly drawn) [Example 21, (2R,3S,4S,5S)-5-(4-aminopyrrolo[2,1-f][1,2,4]triazin-7-yl)-2-((((((S)-1-ethoxy-1-oxopropan-2-yl)amino)(phenoxy)phosphoryl)oxy)methyl)-2-(fluoromethyl)tetrahydrofuran-3,4-diyl diacetate], the EC50 in data set [1] came to 1040 nM; in data set [2] (setting [10]) it was 3060 nM; in the data set on RSV strain A2 (setting [11]), 1780 nM. For the same compound, the CC50 in the data set with uninfected HEp-2 cells is greater than 100000 nM; in data set [6] it was greater than 17300 nM; in data set [7], greater than 25000 nM.

Regarding `COC(=O)[C@H](C)NP(=O)(OC[C@@]1(CF)O[C@@H](c2ccc3c(N)ncnn23)[C@H](OC(=O)C(C)C)[C@@H]1OC(=O)C(C)C)Oc1ccccc1` (single isomer, unassigned) [Example 11], the EC50 worked out at 380 nM in [1] (Dengue virus), 586 nM in [2] (setting [8]), 367 nM in the data set on RSV A2 and 2040 nM in the data set with RSV strain A2 (setting [9]). In addition, the CC50 at 4 days in data set [3] was determined as 12600 nM. In addition, the figures for the CC50 at 48 h in data set [4] and in data set [5] were 16100 nM and greater than 18800 nM, respectively.

With `CCOC(=O)[C@H](C)NP(=O)(OC[C@@]1(CF)O[C@@H](c2ccc3c(N)ncnn23)[C@H](OC(=O)CC)[C@@H]1OC(=O)CC)Oc1ccccc1` (stereo partly drawn) [Example 25, (2R,3S,4S,5S)-5-(4-aminopyrrolo[2,1-f][1,2,4]triazin-7-yl)-2-((((((S)-1-ethoxy-1-oxopropan-2-yl)amino)(Phenoxy)phosphoryl)oxy)methyl)-2-(fluoromethyl) tetrahydrofuran-3,4-diyl dipropionate], the EC50 in [1] came to 213 nM; in data set [2] (setting [10]), 291 nM; in the data set on RSV strain A2 (setting [11]), 919 nM. For the same compound, the CC50 with uninfected HEp-2 cells was 70000 nM; in data set [7], greater than 25000 nM.

For the compound `C[C@H](NP(=O)(OC[C@@]1(CF)O[C@@H](c2ccc3c(N)ncnn23)[C@H](O)[C@@H]1O)Oc1ccccc1)C(=O)OCC(C)(C)C(F)(F)F` (single isomer, unassigned) [Example 55], the EC50 came to 103 nM in data set [1], 611 nM in [2] (setting [10]) and 150 nM in the data set on RSV strain A2 (setting [11]). Also, the figures for the 50% cytotoxic concentration (CC50) (with uninfected HEp-2 cells; in [6]; in data set [7]) were greater than 100000 nM, 4180 nM and greater than 25000 nM, respectively.

With `Nc1ncnn2c([C@@H]3O[C@](CF)(COP(=O)(O)OP(=O)(O)OP(=O)(O)O)[C@@H](O)[C@H]3O)ccc12` [Example 2, sodium ((2R,3S,4R,5S)-5-(4-aminopyrrolo[2,1-f][1,2,4]triazin-7-yl)-2-(fluoromethyl)-3,4-dihydroxytetrahydrofuran-2-yl)methyl triphosphate], the IC50 (in general, the concentration needed to halve the response being measured) on DENV2 NS5 is 737 nM.

Consider `COC(=O)[C@H](C)NP(=O)(OC[C@@]1(CF)O[C@@H](c2ccc3c(N)ncnn23)[C@H](O)[C@@H]1O)Oc1ccccc1` (stereo partly drawn) [Example 10, methyl ((((2R,3S,4R,5S)-5-(4-aminopyrrolo[2,1-f][1,2,4]triazin-7-yl)-2-(fluoromethyl)-3,4-dihydroxytetrahydrofuran-2-yl)methoxy)(phenoxy)phosphoryl)-L-alaninate], for which the EC50 in [1] (Dengue virus) worked out at 679 nM; in data set [2] (setting [8]) it was 843 nM; with RSV A2 it was 2110 nM; in the data set on RSV strain A2 (setting [9]), 909 nM. The CC50 at 4 days in [3] is greater than 50000 nM. Moreover, the CC50 at 48 h was greater than 19500 nM in data set [4] and greater than 25000 nM in [5].

The compound `Nc1ncnn2c([C@@H]3O[C@](CCl)(COP(=O)(O)OP(=O)(O)OP(=O)(O)O)[C@@H](O)[C@H]3O)ccc12` [Comp. Ex. 2, ((2R,3S,4R,5S)-5-(4-aminopyrrolo[2,1-f][1,2,4]triazin-7-yl)-2-(chloromethyl)-3,4-dihydroxytetrahydrofuran-2-yl)methyl tetrahydrogen triphosphate, reference compound] yielded an IC50 at DENV2 NS5 of 7090 nM.

The record behind these values is US12030903B2, “Antiviral compounds” (Gilead Sciences, Inc., priority 2020, dated 2024).
